{
  "source": "paper PMC8667043",
  "about": "“First-in-Class Inhibitors of the Ribosomal Oxygenase MINA53” (Journal of Medicinal Chemistry, 2021)",
  "key": {"NO66": {"target": "T1, NO66 (Homo sapiens, UniProt Q9H6W3)", "T1 construct": "histidine tag (TEV-cleavable) (cleaved yes); made in house; host or cells: E. coli BL21(DE3)-R3-pRARE2", "T1 sequence (Q9H6W3 183-641)": "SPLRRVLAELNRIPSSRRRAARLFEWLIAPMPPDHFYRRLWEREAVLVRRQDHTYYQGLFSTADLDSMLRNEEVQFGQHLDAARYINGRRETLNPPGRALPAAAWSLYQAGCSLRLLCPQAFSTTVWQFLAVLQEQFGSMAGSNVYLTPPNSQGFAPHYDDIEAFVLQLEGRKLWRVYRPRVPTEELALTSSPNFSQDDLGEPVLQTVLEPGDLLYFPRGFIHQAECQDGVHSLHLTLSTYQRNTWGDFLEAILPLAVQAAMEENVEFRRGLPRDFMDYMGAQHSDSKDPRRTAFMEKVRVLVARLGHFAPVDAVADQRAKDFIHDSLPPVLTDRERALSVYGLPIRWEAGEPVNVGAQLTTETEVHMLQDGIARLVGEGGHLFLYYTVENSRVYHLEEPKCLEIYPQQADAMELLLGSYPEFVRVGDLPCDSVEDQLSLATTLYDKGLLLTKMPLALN", "assay": "NO66 MS (RapidFire) hydroxylation inhibition assay, Rpl8 peptide", "type": "biochemical"}, "MINA53": {"target": "T2, MINA53 (Homo sapiens, UniProt Q8IUF8)", "T2 construct": "MINA53 (Met1-Val464 and Ala26-Val464); histidine tag (TEV-cleavable) (cleaved yes); made in house; host or cells: E. coli BL21(DE3)-R3-pRARE2", "T2 sequence (Q8IUF8 1-464 isoform Q8IUF8-4)": "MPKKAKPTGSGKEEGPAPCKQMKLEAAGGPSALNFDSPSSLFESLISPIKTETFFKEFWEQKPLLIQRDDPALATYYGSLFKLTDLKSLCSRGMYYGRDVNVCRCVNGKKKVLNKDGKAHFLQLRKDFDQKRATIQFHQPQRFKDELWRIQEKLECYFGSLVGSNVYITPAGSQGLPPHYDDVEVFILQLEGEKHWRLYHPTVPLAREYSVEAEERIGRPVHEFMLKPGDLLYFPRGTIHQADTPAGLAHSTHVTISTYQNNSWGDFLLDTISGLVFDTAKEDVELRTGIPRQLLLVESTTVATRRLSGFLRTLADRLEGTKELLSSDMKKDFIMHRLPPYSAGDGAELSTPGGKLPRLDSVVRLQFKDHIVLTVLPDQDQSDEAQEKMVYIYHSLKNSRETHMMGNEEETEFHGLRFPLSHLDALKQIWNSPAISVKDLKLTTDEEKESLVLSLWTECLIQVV", "assay": "MINA53 MS (RapidFire) hydroxylation inhibition assay, Rpl27a peptide", "type": "biochemical"}, "U-87MG malignant glioma": {"test_system": "U-87MG malignant glioma", "assay": "MTT cell viability assay", "type": "cell-based, human", "settings": "72, 96, 120 h, 10 to 100 μM, 10′ to a similar extent as 10", "procedure": "(§1) Human commercially available established cancer cell lines HT-29 colon carcinoma (ATCC, HTB-38), U-87MG glioblastoma (ATCC, HTB-14), and MNK-45 gastric cancer (a gift from Dr. M. Broggini, Mario Negri Institute) were cultured in RPMI medium (Euroclone, Milan, IT) supplemented with 10% inactivated fetal bovine serum (HyClone, Thermo Scientific, South Logan, UT), 1% L-glutamine (Euroclone), and 100 μg/mL penicillin/streptomycin (Euroclone). HEK293T and HeLa cells were cultured in Dulbecco’s Modified Eagle Medium (DMEM, Gibco) supplemented with 10% (v/v) fetal bovine serum (FBS, Sigma) and 100 international units/mL (IU/mL) penicillin and 100 μg/mL streptomycin (Gibco). The cells were routinely tested for mycoplasma contamination and STR-authenticated.\n(§2) Twenty-four hours following seeding, exponentially growing cells were treated with the different compounds at concentrations ranging from 10 to 100 μM for 72–120 h. Aqueous DMSO (0.5%, v/v) was used as a control (untreated). Cell viability was determined by the 3-(4,5-dimethylthiazol-2-yl)-2,5-diphenyltetrazolium bromide (MTT) colorimetric assay (Sigma-Aldrich). In summary, exponentially growing cancer cells were seeded in sextuplicate in 96-well culture plates (1.5 × 10^3 cells/well). After 24 h, the compounds were added at concentrations ranging from 10 to 100 μM. The effect of compounds on cancer cell proliferation was assessed by measuring the MTT dye absorbance of the cells as reported.[52] For combination treatments, the cells were treated with each of three compounds, either alone or in combination with doxorubicin. In particular, U-87MG cells were treated with doxorubicin alone or in combination with different MINA53 inhibitors for 24 h. The effect of different compounds or combinations (drug concentration ratio 1:20, doxorubicin: compound) on U-87MG cancer cell viability was assessed by measuring the MTT dye absorbance of cells. The interaction between doxorubicin (Doxo) and different compounds was evaluated based on the combination index (CI) using the CI equation through CalcuSyn software (Biosoft, Cambridge, U.K.). Synergism CI < 0.9, additivity 0.9 < CI < 1.1, antagonism CI > 1.1."}, "MNK-45 gastric carcinoma": {"test_system": "MNK-45 gastric carcinoma", "assay": "MTT cell viability assay", "type": "cell-based, human", "settings": "72, 96, 120 h, 10 to 100 μM, 10′ to a similar extent as 10", "procedure": "as §1, §2"}, "HT-29 colon carcinoma": {"test_system": "HT-29 colon carcinoma", "assay": "MTT cell viability assay", "type": "cell-based, human", "settings": "72, 96, 120 h, 10 to 100 μM, 10′ to a similar extent as 10", "procedure": "as §1, §2"}, "p300": {"target": "T3, p300 (Homo sapiens, UniProt Q09472)", "T3 construct": "purchased Reaction Biology Corporation, Malvern, PA, USA", "T3 sequence (Q09472 1284-1673)": "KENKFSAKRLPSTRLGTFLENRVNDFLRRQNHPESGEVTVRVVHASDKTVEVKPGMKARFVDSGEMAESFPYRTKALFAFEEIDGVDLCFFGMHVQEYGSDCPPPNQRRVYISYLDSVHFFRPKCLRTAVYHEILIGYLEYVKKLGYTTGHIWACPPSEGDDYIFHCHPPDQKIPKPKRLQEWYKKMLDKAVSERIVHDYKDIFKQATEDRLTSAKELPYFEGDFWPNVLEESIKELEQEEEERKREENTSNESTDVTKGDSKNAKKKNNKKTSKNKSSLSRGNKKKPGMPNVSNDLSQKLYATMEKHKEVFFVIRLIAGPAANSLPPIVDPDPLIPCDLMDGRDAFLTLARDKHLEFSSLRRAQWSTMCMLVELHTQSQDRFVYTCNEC", "assay": "HotSpot KAT assay", "type": "biochemical", "settings": "read-out: Residual Enzymatic Activity (%) p300", "procedure": "(§3) The ef fects of 1-13 on th e histone lysine acetyltr a nsferas e activity (KAT ) o f p300 and PCAF were\n(§4) determined using the HotSpot KAT assay ( Reaction Biology Corporation, Malvern, PA, USA)\n(§5) according to the supplier’s procedure. In brief, recombinant form s of catal ytic domains of PCAF\n(§6) NaCl, 0.1 mM EDTA, 1 mM DTT, 1 mM PMSF, 1% (v/v) DMSO) fo r 1 h at 30 °C in the presenc e\n(§7) or absence of various concentrations of the inhibitors. Histone H3 acetyl ation was assessed by\n(§8) liquid scintillation counting using a Tri-Carb 2800TR Liquid Scintillation Analyzer\n(§9) (PerkinElmer). Assays at fixed con centration doses were performed in triplicate and analyzed\n(§10) using Excel and GraphPad Prism 6.0 software (GraphPad Software Inc., San Diego, CA)."}, "PCAF": {"target": "T4, PCAF (Homo sapiens, UniProt Q92831)", "T4 construct": "purchased Reaction Biology Corporation, Malvern, PA, USA", "T4 sequence (Q92831 492-658)": "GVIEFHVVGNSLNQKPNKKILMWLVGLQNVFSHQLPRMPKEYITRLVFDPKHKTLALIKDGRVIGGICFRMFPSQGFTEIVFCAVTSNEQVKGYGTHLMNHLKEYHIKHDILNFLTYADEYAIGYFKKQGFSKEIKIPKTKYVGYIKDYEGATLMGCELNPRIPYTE", "assay": "HotSpot KAT assay", "type": "biochemical", "settings": "means ± SD of three experiments, read-out: Residual Enzymatic Activity (%) PCAF", "procedure": "as §3, §4, §5, §6, §7, §8, §9, §10"}, "U-87MG cells": {"test_system": "U-87MG cells", "assay": "MTT cell viability, alone or in combination with doxorubicin; combination index", "type": "cell-based, human", "settings": "24 h", "procedure": "as §2"}, "[1]": {"settings": "NO66 (Ser183-Asn641), means ± 95% confidence, n = 3, read-out: IC50 value, NO66 (assay validation, Figure S7)"}, "[2]": {"settings": "Table S12, read-out: NO66 IC50 (Table S12)"}, "[3]": {"settings": "MINA53 (Met1-Val464), means ± 95% confidence, n = 3, read-out: IC50 value, MINA53 (assay validation, Figure S7)"}},
  "note": "Entries after “also recorded” stand apart in the source; their conditions may differ. Read-outs that look alike come from different tables or passages of the source.",
  "data": [
    {"compound": "O=C(O)c1ccnc(C(=O)O)c1", "note": "[2,4-PDCA, pyridine-2,4-dicarboxylate, reference compound]", "values": [
      {"measurement": "IC50", "setting": "NO66; [1]", "result": 0.11, "unit": "µM"},
      {"measurement": "IC50", "setting": "NO66; [2]", "result": 0.168, "unit": "µM"}
    ]},
    {"compound": "COC(=O)c1cnc(SCCCc2ccccc2)[nH]c1=O", "note": "[10′, Methyl 2-((3-phenylpropyl)thio)-3,4-dihydro-4-oxopyrimidine-5-carboxylate]", "values": [
      {"measurement": "IC50", "setting": "MINA53; Table S12, read-out: MINA53 IC50 (Table S12)", "result": "> 100", "unit": "µM"},
      {"measurement": "effect on cell viability, U-87MG", "setting": "U-87MG malignant glioma", "result": "reduced the cell viability"},
      {"measurement": "effect on cell viability, MNK-45", "setting": "MNK-45 gastric carcinoma", "result": "reduced the cell viability"},
      {"measurement": "effect on cell viability, HT-29", "setting": "HT-29 colon carcinoma", "result": "reduced the cell viability"},
      {"measurement": "IC50", "setting": "NO66; [2]", "result": 20.1, "unit": "µM"}
    ]},
    {"compound": "CCCCCCCCCCCCCCCc1cccc(O)c1C(=O)O", "note": "[Anacardic Acid (AA), reference compound]", "values": [
      {"measurement": "remaining activity at 100 µM", "setting": "p300", "result": "0.9 ± 0.01", "unit": "%"},
      {"measurement": "remaining activity at 100 µM", "setting": "PCAF", "result": "4.7 ± 0.3", "unit": "%"}
    ]},
    {"compound": "O=C(O)CCNc1cc(N2CCc3ccccc3CC2)nc(-c2ccccn2)n1", "note": "[GSK-J1, reference compound]", "values": [
      {"measurement": "inhibition of MINA53 at 100 μM", "setting": "MINA53; at 100 μM", "result": "did not show significant inhibition; also recorded: No inhibition"},
      {"measurement": "inhibition of NO66 at 100 μM", "setting": "NO66; at 100 μM", "result": "did not show significant inhibition"},
      {"measurement": "inhibition at 100 µM", "setting": "NO66; read-out: inhibition of NO66 at 100 μM", "result": 30, "unit": "%"}
    ]},
    {"compound": "O=C(O)c1ccc(O)c2ncccc12", "note": "[IOX-1, reference compound]", "values": [
      {"measurement": "IC50", "setting": "MINA53; [3]", "result": 102, "unit": "µM"},
      {"measurement": "IC50", "setting": "NO66; [1]", "result": 38.5, "unit": "µM"}
    ]},
    {"compound": "O=C(O)CNC(=O)C(=O)O", "note": "[NOG, N-oxalylglycine, reference compound]", "values": [
      {"measurement": "IC50", "setting": "MINA53; [3]", "result": 1.8, "unit": "µM"},
      {"measurement": "IC50", "setting": "NO66; [1]", "result": 3.5, "unit": "µM"}
    ]},
    {"compound": "COc1cccc2c1C(=O)c1c(O)c3c(c(O)c1C2=O)C[C@@](O)(C(=O)CO)C[C@@H]3O[C@H]1C[C@H](N)[C@H](O)[C@H](C)O1", "note": "[doxorubicin, reference compound]", "values": [
      {"measurement": "cell viability, single compound treatment", "setting": "U-87MG cells", "result": "reduced cell viability in a dose-dependent manner"}
    ]}
  ]
}
